Measured values taken from the METLIN SMRT retention time set (Domingo-Almenara et al. 2019).

Experiment: gradient 5% acetonitrile 3 min, to 50% in 2 min, to 85% in 15 min, held 3 min, 100 µL/min
Details: column: Zorbax Extend-C18 2.1 x 50 mm; eluents: water / acetonitrile, 0.1% formic acid
Outline: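 The mobile phases were water and acetonitrile, each with 0.1% formic acid, pumped at 100 μL/min through a Zorbax Extend-C18 column (2.1 × 50 mm, 1.8 μm). Pure standards were injected as mixtures of ~100 molecules and detected by a quadrupole time-of-flight mass spectrometer in positive and negative ionization mode. Retention time came from computationally picked adduct peaks, each inspected by hand.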

SMILES | RP-LC retention time [s]
CC(C)(C)c1csc(-c2csc(S(=O)(=O)Nc3ccccc3)c2)n1 | 1180
Cc1cccc(NC(=O)CN2CCc3[nH]c4c(C)c(C)ccc4c(=O)c3C2)c1 | 626
Cn1c(N2CCCC(C(=O)NCCCN3CCN(c4ccccc4)CC3)C2)cc(=O)n(C)c1=O (stereo not given) | 600
Cc1cc(C)c2c(N3CCSCC3)nc(C(=O)N3CCN(CC(C)C)CC3)nc2n1 | 580
COc1cccc(C2Cn3nnc(-c4nc(-c5ccccc5OC)no4)c3CO2)c1 (stereo not given) | 1010
CCCn1cc(CCNC(=O)Nc2cccc(Cl)c2F)c2cccnc21 | 900
O=C(Cn1cnc2nc3c(cc2c1=O)CCCC3)NCCCN1CCc2ccccc2C1 | 864
CCCC(=O)Nc1ccc2c(c1)CC(C(=O)NCCOC)CO2 (stereo not given) | 646
Cc1ccc(NC(=O)C2CCN(c3cc(N4CCSCC4)ncn3)CC2)cc1F | 734
O=C(N[C@H]1C[C@@H]2C[C@H]1CN2S(=O)(=O)c1ccc2c(c1)CCC2)c1ccccc1 | 933
CCC(=O)N1CCN(c2ccc(=O)n(-c3ccc(C(C)C)cc3)n2)CC1 | 780
CCN1C(=O)c2ccccc2Oc2ccc(C(=O)NC(C)Cc3ccco3)cc21 (stereo not given) | 929
CC(=O)c1cc2c(cc1NC(=O)c1cn(Cc3ccc(C)cc3)nn1)OCO2 | 1030
Cc1noc(CN2N=C(C(=O)N3CCC(C)CC3)S(=O)(=O)c3ccccc32)n1 | 826
CCOC(=O)c1ccc2nc(C(F)(F)F)nc(NCc3ccc(Cl)cc3)c2c1 | 1240
Cc1ccccc1CNC(=O)C1(C)CCCN(C(=O)NCc2ccc(F)cc2)C1 (stereo not given) | 890
Cc1ccc(Cl)cc1NC(=O)N1C[C@@H](F)C[C@H]1C(=O)N1CCCCC1 | 746
COc1ccc(NC(=O)C2CC(=O)N(c3ccc4c(c3)CCN4C(=O)C3CC3)C2)cc1F (stereo not given) | 770
CCC[C@@H]1C[C@@H](C(=O)N[C@@H]([C@H]2O[C@H](SC)[C@@H](O)[C@@H](O)[C@H]2O)[C@@H](C)O)N(C)C1 | 584
O=C(NCCn1c(=O)n(Cc2ccccc2)c2cccnc21)c1ccsc1 | 750
COc1ccc(-c2noc(C3CCCN3C(=O)c3ccc(Cl)cc3OC)n2)cc1OC (stereo not given) | 934
COc1ccc(-c2noc(Cc3nnc(-c4cccc(C)c4)o3)n2)cc1OC | 945

SMILES | RP-LC retention time [s]
CCN(Cc1ccncc1)C1CN(C(=O)c2ccc3ncccc3c2)C1 | 560
Cc1ccccc1NC(=O)C1CCN(S(=O)(=O)c2cc(C(=O)N3CCCC3)cs2)CC1 | 760
COc1cccc(OCC2c3ccsc3CCN2C(=O)CN(C(C)=O)C(C)C)c1 (stereo not given) | 808
Cn1ccc2ccn(CC(=O)Nc3cccc(Br)c3)c(=O)c21 | 827
COc1ccc(NC(=O)C2CCCN(c3nnc4ccccn34)C2)cc1Cl (stereo not given) | 702
COc1ccc(-n2c(=O)n(C)c(=O)c3cc(C(=O)Nc4ccc(F)c(C)c4)cnc32)cc1 | 955
O=C(NCc1csc(-c2cccs2)n1)C1CCN(C(=O)c2ccccc2F)CC1 | 743
Cc1cnc(C2CC2)n1C1CCN(S(=O)(=O)c2cccc(F)c2)C1 (stereo not given) | 654
CCc1noc(-c2ccc(-n3ncc(C(=O)NC(C)C)c3C)nc2)n1 | 837
COc1ccc(NC(=O)N2CCC(n3c(-c4ccoc4)nc4cccnc43)C2)cc1 (stereo not given) | 698
CN1C(=O)C2CCCCN2c2ccc(C(=O)NCCCN3CCCCC3)cc21 (stereo not given) | 600
CCc1ccc(NS(=O)(=O)c2cc(-c3[nH]ncc3C(=O)N3CCCCC3)oc2C)cc1 | 822
CCNc1cc(N2CCC(CCC(=O)NCc3ccccc3F)CC2)ncn1 | 646
Cc1nnc(-c2cn(CC(=O)Nc3ccc(F)cc3F)c3ccccc23)o1 | 747
Cc1cccc(CNC(=O)Cc2csc3nc(-c4ccccc4)cn23)c1 | 880
c1cn(-c2ccc(SC3CCCC3)nn2)cn1 | 604
O=C(NCCC1CCN(C(=O)Nc2ccc(F)cc2F)CC1)c1cccs1 | 737
Cc1ccc(F)cc1NS(=O)(=O)c1cc(-c2[nH]ncc2C(=O)N2CCCCC2)oc1C | 791
COc1cc(-c2nc3ncccn3c2NC2CCCCCC2)cc(OC)c1OC | 790
Cc1ccc(NC(=O)C2CCN(C(=O)c3ncn4c3COC(c3ccccc3)C4)CC2)cc1C (stereo not given) | 796
CN(Cc1ccccc1)C(=O)C1c2ccccc2C(=O)N(C)C1c1cccs1 (stereo not given) | 877
CC(C)c1noc(-c2ccn3c(CC(=O)N4CCSCC4)nnc3c2)n1 | 726

SMILES | RP-LC retention time [s]
Cc1nc2cc(-c3noc(-c4ccc(C)c(F)c4)n3)ccc2o1 | 1210
O=C(c1ccc([N+](=O)[O-])o1)N1CCN(Cc2csc(-c3ccccc3)n2)CC1 | 601
O[C@H](CNC[C@@H](O)[C@H]1CCc2cc(F)ccc2O1)[C@@H]1CCc2cc(F)ccc2O1 | 791
COc1ccc(CNc2nc3ccncc3n(C(C)C)c2=O)cc1 | 652
COC(=O)Cn1c(C2CC(=O)N(Cc3ccccc3)C2)nc2ccccc21 (stereo not given) | 770
CN1C(=O)N(C)C2(CCN(C(=O)Cc3ccc(Cl)cc3)CC2)C1=O | 686
CCOC(=O)c1c(S(=O)(=O)NCc2ccccc2F)n[nH]c1C | 728
COc1cc(C(=O)Nc2ccc(C)cc2-c2nc3ccccc3[nH]c2=O)cc(OC)c1OC | 772
O=C(CC1CCCC1)NCCC1CCN(C(=O)Nc2cc(F)cc(F)c2)CC1 | 905
O=C(Cn1cnc2c(sc3nc(-c4ccccc4)ccc32)c1=O)Nc1ccccc1Cl | 1020
CCc1noc(-c2ccnc(-n3ncc(C(=O)NC4CC4)c3C)c2)n1 | 815
O=C(Nc1ccc(Br)cc1)C1CC(=O)N(c2n[nH]c3cccc(F)c23)C1 (stereo not given) | 782
CC(C)C(=O)NCCn1c(=O)n(Cc2ccccc2)c2cccnc21 | 714
Cc1cc2nc(C(=O)NC(C)C)c(=O)n(C)c2cc1C | 747
Cc1nnc(CNC(=O)C(=O)Nc2ccc(Cl)cn2)o1 | 628
CCc1c(C(=O)O)nnn1Cc1c(F)cccc1Cl | 742
CCOc1ccc(NC(=O)N2CCN(c3ccc(=O)n(-c4ccc(C)cc4)n3)CC2)cc1 | 802
Cc1cc(C)cc(NC(=O)C2CCc3nc(N4CCOCC4)ncc3C2)c1 (stereo not given) | 848
CC1CCCN(CC2CCN(S(=O)(=O)c3cccc(Cl)c3)CC2)C1 (stereo not given) | 696
Cc1cc(Cl)ccc1OCC(=O)N(Cc1ccc(N(C)C)cc1)C1CCS(=O)(=O)C1 (stereo not given) | 849
COc1ccc(CCC(=O)NCC2(c3cccs3)CCCC2)cc1 | 947
